Assay results reported in US20250262139A1, “POLYPEPTIDES AND METHODS FOR IMPROVING SKIN CONDITIONS” (INTERK PEPTIDE THERAPEUTICS LIMITED, priority 2020, published 2025).
Where no end group is shown, it is not given here.

Experiments:
dermal fibroblasts = assay: TBARS lipid peroxidation assay, UV-irradiated dermal fibroblasts; format: cell-based; details: IK-3 at the highest concentration (5 μM); 1,25D
Experimental: The ability of the polypeptide RSKAKNPLYRRRRRRRRR to alter UV-induced oxidative damage of cell-derived lipids was examined using the TBARS thiobarbituric acid-reactive substances (TBARS) lipid peroxidation assay.
After irradiation or sham-irradiation of dermal fibroblasts, supernatants (900 μL) were collected. In brief, 90 μL of butylated hydroxytoluene (2% w/w in ethanol) was added and samples kept frozen (−20° C.) until the TBARS assay. Petri dishes were washed twice with 1 mL of HBSS, cells scraped in 600 μL of water and 60 μL of 0.5% aqueous Triton X100 added to this solution, for protein determination carried out by the Lowry method (Lowry O H et al, J. Biol. Chem., 1951, 193:265-275). TBARS were fluorometrically assayed as described (Morlière P et al, Biochim. Biophys. Acta, 1991, 1084:261-268). Briefly, thawing samples were heated in the presence of thiobarbituric acid in acidic conditions, and TBARS extracted with 1-butanol and fluorometrically quantified (λexc=515 nm and Aem=550 nm). Tetraethoxypropane, which quantitatively yields the malondialdehyde-thiobarbituric acid adduct in the assay conditions, was used for calibration. TBARS values, expressed in malondialdehyde (MDA) equivalents, were normalized to the cell protein for each Petri dish. Each TBARS determination was performed in triplicate (e.g., with three Petri dishes per data point).

Aquaporin 3 = Aquaporin 3 expression in keratinocytes exposed to HEV (blue) light; format: cell-based, human; details: NHEK exposed to HEV (blue) light; for increase in number of Aquaporin 3 positive cells: 470 nm, 3 days
Experimental: The ability of the polypeptide RSKAKNPLYRRRRRRRRR, to reverse HEV light (‘blue light”) induced damage to human keratinocytes was examined. In brief, Human Epidermal Keratinocytes (NHEK) which are representative of the epidermis were exposed to HEV light in the presence of the polypeptide RSKAKNPLYRRRRRRRRR, or untreated in the presence of the polypeptide RSKAKNPLYRRRRRRRRR.
The expression of Aquaporin 3 in cells (e.g. aquaporin 3 positive cells_was measured. Aquaporin 3 is found in the basolateral cell membrane and provides a pathway for water to exit cells. It is expressed in various tissues including the skin.
The experiment was carried out in quintuplicate in the following conditions (n=5): • Untreated NHEK • NHEK+IK14800 2,5 μM • NHEK+IK14800 5 μM • NHEK+IK14800 10 μM • NHEK+Blue light • NHEK+Blue light+IK14800 2.5 μM • NHEK+Blue light+IK14800 5 μM • NHEK+Blue light+IK14800 10 μM
Chronic blue light irradiation: one exposure per day for 3 days (220 joules—wavelength 470 nm). 4 days of treatment with the peptide (24 h before exposure to blue light and during the 3 days. The peptide was resuspended in milliQ water then diluted in the cell culture medium.
After treatment, the cells were washed and fixed with Formalin.
Finally, the nuclei were labelled with DAPI. The labelled proteins were observed and quantified by automated fluorescence microscopy Cellinsight CX7 High-Content Screening Platform (Thermofischer Data analysis
A statistical analysis was performed using Mann-Whitney by Prism software. The significance is correlated with the p-value: ns=no significant, […], **p-value<0.01, ***p-value<0.001.).

RSKAKNPLYRRRRRRRRR (not fully specified (some residues)) [IK34720]
significant difference in TRS (TBA reactive substances) between Sham and UV irradiation (dermal fibroblasts): not seen | increase in number of Aquaporin 3 positive cells (Aquaporin 3; 5 μM): +20% | increase in number of Aquaporin 3 positive cells (Aquaporin 3; 10 μM): +27% | basal expression of Aquaporin 3 (Aquaporin 3; 2.5, 5, 10 μM): restores the basal expression of Aquaporin 3 in a dose dependent manner
